Reference: article PMC11161800, “Principles of peptide selection by the transporter associated with antigen processing” (Proceedings of the National Academy of Sciences of the …, 2024)

Tested on: human TAP
Test: NADH-coupled steady-state ATP hydrolysis (ATPase) assay of purified TAP
Type: biochemical
Conditions: 28 °C; for Stimulation of ATP hydrolysis by shortened b27 peptides: TAP 0.5 µM, peptides 20 µM, ATP 3 mM, means of three technical replicates of three biological replicates (n = 9), one-way ANOVA, Fig. 4A
Experimental: Steady-state ATP hydrolysis activity was measured using a nicotinamide adenine dinucleotide (NADH)-coupled assay. Purified TAP was diluted to a final concentration of 0.5 µM in freshly prepared reaction buffer containing 50 mM HEPES (pH 8.0 with KOH), 150 mM KCl, 2 mM MgCl2, 2 mM DTT, 0.004% (w/v) digitonin, 60 µg mL^−1 pyruvate kinase (Roche), 32 µg mL^−1 lactate dehydrogenase (Roche), 9 mM phosphoenolpyruvate and 150 µM NADH. Peptide substrates were added to a final concentration of 20 µM unless specified otherwise. Then, 30 µL aliquots were dispensed into Corning 384-well Black/Clear Flat Bottom Polystyrene NBS Microplates, and reactions were initiated by the addition of 3 mM ATP. NADH consumption was measured by monitoring the rate of NADH fluorescence depletion at λex = 340 nm and λem = 445 nm at 28 °C using an Infinite M1000 microplate reader (Tecan). Data were converted to ATP turnover with an NADH standard curve. Technical replicates were measured in parallel from the same protein preparation on the same day and biological replicates were measured from different protein preparations from different cells on different days.

Substance | Stimulation of ATP hydrolysis by shortened b27 peptides | Stimulation of ATP hydrolysis by shortened b27 peptides (listed as B27′) | ATPase activity as a function of b27 concentration (0.5 µM TAP, 3 mM ATP, pH 8.0, three technical replicates (n = 3), Fig. 1B)
b27″(Q): 7-mer modified b27 peptide lacking the lysine and the adjacent serine (RRYQTEL) | neither of the 7-mer peptides were able to stimulate ATP hydrolysis and not | – | –
RRYSTEL [b27″, 7-mer modified b27 peptide lacking the lysine and the adjacent glutamine] | neither of the 7-mer peptides were able to stimulate ATP hydrolysis and not | – | –
RRYQSTEL [b27′, 8-mer modified b27 peptide lacking the central lysine at position five] | stimulated ATP hydrolysis | increased the ATPase activity of TAP to a slightly greater extend compared to b27 | –
b27: 9-mer peptide RRYQKSTEL, well-characterized substrate transported by TAP and presented by HLA-B27 [reference compound] | – | – | stimulated in a dose-dependent manner
